IC50 data for 1 molecule are collected here from BindingDB's records for doi:10.1128/AAC.00802-08 (University of Medicine and Dentistry of New Jersey, 2008).

The structures appear in SMILES notation.

In test [1] the target is T1, 1,3-beta-glucan synthase (Candida tropicalis, UniProt B6S6L8, S80P). Kind of test: Inhibition of Candida tropicalis T3 blood stream isolate glucan synthase subunit FKS1p with FLTLS/PLRDP mutant at biphasic kinetics.
For test [2], the target named is T1, 1,3-beta-glucan synthase. Kind of test: Inhibition of Candida tropicalis T3 blood stream isolate glucan synthase subunit FKS1p with FLTLS/PLRDP mutant at monophasic kinetics.
In test [3] the target is T2, 1,3-beta-D-glucan synthase catalytic subunit (Candida albicans, UniProt O13383).
T2 sequence (O13383 whole entry): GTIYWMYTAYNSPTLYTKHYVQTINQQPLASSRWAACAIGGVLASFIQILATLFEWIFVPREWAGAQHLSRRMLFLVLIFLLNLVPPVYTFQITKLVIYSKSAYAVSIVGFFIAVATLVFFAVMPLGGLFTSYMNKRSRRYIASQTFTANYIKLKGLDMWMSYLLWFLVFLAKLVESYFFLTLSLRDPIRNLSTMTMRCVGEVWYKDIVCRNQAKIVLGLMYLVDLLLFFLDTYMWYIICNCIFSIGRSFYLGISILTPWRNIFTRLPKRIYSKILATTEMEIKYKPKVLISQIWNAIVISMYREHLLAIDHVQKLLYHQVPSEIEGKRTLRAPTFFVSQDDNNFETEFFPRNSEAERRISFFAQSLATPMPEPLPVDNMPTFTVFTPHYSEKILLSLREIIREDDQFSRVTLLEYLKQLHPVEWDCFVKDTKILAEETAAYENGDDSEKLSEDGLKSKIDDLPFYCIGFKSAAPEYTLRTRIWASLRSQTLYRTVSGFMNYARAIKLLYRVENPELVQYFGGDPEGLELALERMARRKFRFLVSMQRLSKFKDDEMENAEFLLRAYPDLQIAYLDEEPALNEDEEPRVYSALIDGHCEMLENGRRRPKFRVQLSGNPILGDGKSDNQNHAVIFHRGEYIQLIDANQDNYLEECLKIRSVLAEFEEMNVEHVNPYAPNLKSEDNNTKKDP
Briefly: Inhibition of Candida albicans ATCC 90028 glucan synthase at monophasic kinetics.

In test [4] the target is T1, 1,3-beta-glucan synthase. Kind of test: Inhibition of Candida tropicalis T19 blood stream isolate glucan synthase subunit FKS1p with FLTLS/PLRDP mutant at monophasic kinetics.
For test [5], the target named is T1, 1,3-beta-glucan synthase. Briefly: Inhibition of Candida tropicalis T19 blood stream isolate glucan synthase subunit FKS1p with FLTLS/PLRDP mutant at biphasic kinetics.
The target of test [6] is 1,3-beta-glucan synthase (Candida tropicalis, UniProt B6S6L8, F76L). Kind of test: Inhibition of Candida tropicalis T26 blood stream isolate glucan synthase subunit FKS1p with LLTLSLRDP mutant at monophasic kinetics.
1,3-beta-glucan synthase (Candida tropicalis, UniProt B6S6L8, F76L), sequence (B6S6L8 entry or part of it, stated change not applied): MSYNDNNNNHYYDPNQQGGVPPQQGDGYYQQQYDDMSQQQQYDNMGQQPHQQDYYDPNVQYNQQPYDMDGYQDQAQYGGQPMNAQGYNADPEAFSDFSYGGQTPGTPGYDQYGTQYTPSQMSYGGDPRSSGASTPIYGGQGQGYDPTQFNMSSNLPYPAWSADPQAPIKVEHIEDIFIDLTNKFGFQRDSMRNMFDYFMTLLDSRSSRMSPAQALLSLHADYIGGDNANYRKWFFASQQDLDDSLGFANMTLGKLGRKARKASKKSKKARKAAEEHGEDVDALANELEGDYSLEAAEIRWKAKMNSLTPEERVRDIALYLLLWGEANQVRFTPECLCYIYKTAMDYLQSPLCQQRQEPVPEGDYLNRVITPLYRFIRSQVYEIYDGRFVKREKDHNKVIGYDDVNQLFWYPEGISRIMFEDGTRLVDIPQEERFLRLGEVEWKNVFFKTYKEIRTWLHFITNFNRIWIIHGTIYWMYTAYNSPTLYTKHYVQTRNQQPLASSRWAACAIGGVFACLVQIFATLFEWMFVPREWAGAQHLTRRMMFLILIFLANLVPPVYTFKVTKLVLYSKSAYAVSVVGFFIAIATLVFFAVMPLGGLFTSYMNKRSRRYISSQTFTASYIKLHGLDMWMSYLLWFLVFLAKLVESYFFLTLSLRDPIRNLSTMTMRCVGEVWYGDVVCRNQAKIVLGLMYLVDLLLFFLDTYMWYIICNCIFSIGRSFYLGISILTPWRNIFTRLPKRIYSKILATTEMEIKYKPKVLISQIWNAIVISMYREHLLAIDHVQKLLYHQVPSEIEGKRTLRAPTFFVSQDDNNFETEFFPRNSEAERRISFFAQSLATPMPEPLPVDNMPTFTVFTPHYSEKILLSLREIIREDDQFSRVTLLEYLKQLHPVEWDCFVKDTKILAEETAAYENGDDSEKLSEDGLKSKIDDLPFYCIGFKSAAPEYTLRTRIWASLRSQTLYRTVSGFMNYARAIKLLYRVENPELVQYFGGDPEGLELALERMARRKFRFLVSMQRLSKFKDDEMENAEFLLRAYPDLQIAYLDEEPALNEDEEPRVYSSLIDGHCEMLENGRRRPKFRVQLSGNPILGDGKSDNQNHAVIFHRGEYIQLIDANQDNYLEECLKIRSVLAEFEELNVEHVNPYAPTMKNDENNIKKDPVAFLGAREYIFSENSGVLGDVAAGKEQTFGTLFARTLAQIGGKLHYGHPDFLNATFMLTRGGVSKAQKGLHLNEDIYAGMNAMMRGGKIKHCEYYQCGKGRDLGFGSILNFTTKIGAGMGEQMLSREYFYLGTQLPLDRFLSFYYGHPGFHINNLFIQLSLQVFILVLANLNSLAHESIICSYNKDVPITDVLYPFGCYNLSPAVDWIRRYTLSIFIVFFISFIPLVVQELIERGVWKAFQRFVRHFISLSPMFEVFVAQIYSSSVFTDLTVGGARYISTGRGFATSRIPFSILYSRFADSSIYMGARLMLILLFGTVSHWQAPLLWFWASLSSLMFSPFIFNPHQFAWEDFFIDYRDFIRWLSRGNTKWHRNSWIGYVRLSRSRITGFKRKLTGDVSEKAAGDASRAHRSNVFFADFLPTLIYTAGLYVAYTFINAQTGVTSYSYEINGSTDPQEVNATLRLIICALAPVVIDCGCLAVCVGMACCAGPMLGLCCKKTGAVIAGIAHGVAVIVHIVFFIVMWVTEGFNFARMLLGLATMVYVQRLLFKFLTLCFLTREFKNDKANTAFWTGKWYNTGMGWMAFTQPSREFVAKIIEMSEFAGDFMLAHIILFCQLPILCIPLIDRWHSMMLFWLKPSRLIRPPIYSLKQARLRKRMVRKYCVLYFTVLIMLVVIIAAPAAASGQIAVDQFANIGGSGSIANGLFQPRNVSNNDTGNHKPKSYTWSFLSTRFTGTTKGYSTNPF

T1 sequence (B6S6L8 entry or part of it, stated change not applied): as above

Broadly, the IC50 is the concentration needed to halve the response being measured. `CCC(C)CC(C)CCCCCCCCC(=O)N[C@H]1C[C@@H](O)[C@@H](NCCN)NC(=O)[C@@H]2[C@@H](O)CCN2C(=O)[C@H]([C@H](O)CCN)NC(=O)[C@H]([C@H](O)[C@@H](O)c2ccc(O)cc2)NC(=O)[C@@H]2C[C@@H](O)CN2C(=O)[C@H]([C@@H](C)O)NC1=O` (stereo partly specified) [CHEBI:474180]: the 50% inhibitory concentration (IC50) in test [1] came to 370 nM; in test [2] it was 0.306 nM; in test [3] it was 0.5 nM; in test [4] it was 0.296 nM; in test [5], 264 nM; in test [6], 77 nM.
